The target in the experiment is T1, POXA1b (Pleurotus ostreatus, UniProt O60199).
T1 construct: wild-type laccase secreted by Pichia pastoris; concentrated and dialysed supernatant, not further purified
T1 sequence (O60199 21-533): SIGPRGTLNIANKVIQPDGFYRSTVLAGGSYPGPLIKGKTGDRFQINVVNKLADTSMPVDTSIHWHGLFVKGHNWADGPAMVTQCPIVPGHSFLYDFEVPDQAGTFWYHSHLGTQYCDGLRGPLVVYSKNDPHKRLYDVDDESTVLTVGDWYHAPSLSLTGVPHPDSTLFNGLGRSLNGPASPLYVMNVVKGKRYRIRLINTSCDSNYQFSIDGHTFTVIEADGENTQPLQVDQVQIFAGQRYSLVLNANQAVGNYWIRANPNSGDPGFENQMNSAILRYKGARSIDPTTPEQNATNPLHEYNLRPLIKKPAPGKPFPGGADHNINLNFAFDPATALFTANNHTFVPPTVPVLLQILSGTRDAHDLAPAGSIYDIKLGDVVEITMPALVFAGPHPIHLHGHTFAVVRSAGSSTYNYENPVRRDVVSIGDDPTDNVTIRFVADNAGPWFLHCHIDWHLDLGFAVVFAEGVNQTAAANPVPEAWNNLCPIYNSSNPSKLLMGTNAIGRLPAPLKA
Kind of experiment: spectrophotometric oxidation assay at […] nm. Type of experiment: biochemical. The following applies: 2 mM ABTS, 0.1 M sodium citrate pH 3.0, room temperature.

The values that follow come from PMC7312733, “From Graphite to Laccase Biofunctionalized Few-Layer Graphene: A “One Pot” Approach Using a Chimeric Enzyme” (International Journal of Molecular Sciences, 2020).

Regarding `CCn1c(=NN=c2sc3cc(S(=O)(=O)O)ccc3n2CC)sc2cc(S(=O)(=O)O)ccc21` [ABTS, 2,2′-azino-bis(3-ethylbenzothiazoline-6-sulphonic acid)], the “spectrophotometric oxidation assay at 420 nm” value is on record as “The laccase activity was assayed at room temperature, monitoring the oxidation of ABTS”.
